Columns and labels:
[1] = test system: Onchocerca volvulus L3 larvae; experiment: Onchocerca volvulus L3 larval molting assay; format: cell-based; conditions: O. volvulus, 1 μM
Procedure: (§1) The first three analogs from the benzimidazole 5-carboxylic acid, namely 7a (from 6-aminobenzoxaborole), 8a (from 6-aminomethyl-3,3-dimethylbenzoxaborole), and 8b (from 3-aminomethylbenzoxaborole), were prepared and tested in an Onchocerca volvulus L3 larval molting assay[34],[35] and a mammalian G2/M arrest assay[36] to evaluate antifilarial activity and selectivity, respectively (Table 1). O. volvulus is the causative agent of river blindness, and the L3 molting assay is the only widely available and reproducible assay of this filariid, the target of novel macrofilaricidal drugs.[34],[35] Other animal models (e.g., Brugia in gerbils) recapitulate aspects of lymphatic filariasis and are also used as surrogate screens for O. volvulus infections. Of the three compounds tested, 8a emerged as the most attractive compound on the basis of potency and selectivity.
Plates were incubated at 37 °C in a 5% CO2 incubator for 6 days, then molting was assessed visually using an inverted microscope. Molting was determined in each well by counting the presence of fourth stage larvae (L4s) and empty casts of L3s.
The percent inhibition of molting was calculated based on the number of treated larvae that were able to molt in comparison to the number of control larvae that had successfully molted. IC50 values were calculated using GraphPad Prism v6.0
(http://www.graphpad.com). See Bullman et al., PLoS Negl. Trop.
Adult Brugia malayi transplantation in vivo model procedure.
Gerbils (Meriones unguiculatus) were infected by transplantation of 10 male and 10 female adult Brugia malayi into the peritoneal cavity. Gerbils were acclimated for 7 days prior to treatment. Animals were dosed based on their body weight prior to each dosing. Animals were administered their doses at the same time each day and receive standard rodent laboratory diet and water ad libitum. Gerbils were humanely euthanized at the conclusion of each study. Peritoneal counts of male and female adult B. malayi and visual condition of the peritoneum were recorded.
Brugia pahangi L3 injection in vivo model procedure 8.
Male gerbils (Meriones unguiculatus) approximately 6 weeks of age (50-60 g) were purchased from Charles Rivers (USA, Kingston K62 Gerbils) and infected by intraperitoneal injection with 200 Brugia pahangi third-stage larvae (L3) per animal
(Filariatech, Inc., Athens, GA). Gerbils were housed with no more than 5 animals per cage and maintained 9 months prior to treatment. All gerbils were dosed in accordance with their body weight determined prior to each dosing. Animals were […]

[2] = MDR1-MDCK monolayer permeability assay; format: in vitro ADME; conditions: dog
Procedure: We characterized the in vitro ADME properties of 8a in preparation for evaluation of this compound in our primary in vivo model in gerbils. […] We were pleased to find that 8a was able to kill 100% of both male and female worms in the gerbil peritoneum when dosed subcutaneously at 100 mg/kg/day for 14 days as a suspension in a nonsolubilizing HEC/Tween vehicle. […] The subsequent assessment of the pharmacokinetics of 8a from these two dosing paradigms provided an interesting observation that we believe to be important in understanding the PK–PD requirements for achieving efficacy in this animal model. […] We had made the same observation in a positive control group using flubendazole at a subcutaneous dose of 10 mg/kg/day for 5 days in the nonsolubilizing HEC/Tween vehicle, namely, that plasma levels of flubendazole were maintained above the in vitro IC50 (4 nM) for over 42 days, consistent with data reported in the literature.[43] […] We next examined 8a in two additional in vivo models, the first where L3 B. pahangi larvae were injected into the peritoneum of gerbils and allowed to develop into adult worms[45] and a second where gerbils were naturally infected by the filarial nematode Litomosoides sigmodontis.[46],[47] In both of these models, 8a was administered subcutaneously at 100 mg/kg for 14 days or orally at 100 mg/kg for 28 days as a suspension. […] Additionally, when plasma obtained from treated animals at necropsy was analyzed for 8a, we observed an outcome similar to that observed in the adult implantation model, e.g., that measurable levels were present at this time point in the subcutaneous-dosed groups but not in the orally dosed groups, weeks after administration of the drug. In a final L. sigmodontis experiment with 8a, we dosed the compound subcutaneously at 300 mg/kg for 7 days as a suspension.

[3] = test system: G2/M arrest (functional indicator of interaction with mammalian tubulin); experiment: mammalian G2/M arrest assay; format: cell-based; conditions: Table 3; read-out: G2/M IC50
Procedure: as §1
Similarly, changing the point of attachment on the benzoxaborole core from 6- to 5- to afford 8d was also accompanied by increased potency in both the O. volvulus and G2/M arrest assays.

| Papp A→B [2] [×10⁻⁶ cm/s] | IC50 [3] [µM] | SMILES | inhibition at 1 µM [1] [%] |
| --- | --- | --- | --- |
| 2.35 | 16 | COC(=O)Nc1nc2c(F)c(C(=O)NCc3ccc4c(c3)B(O)OC4(C)C)ccc2[nH]1 [8i] | 0 |
| 0.14 | 35 | COC(=O)Nc1nc2ccc(C(=O)N(CCN(C)C)Cc3ccc4c(c3)B(O)OC4(C)C)cc2[nH]1 [8h] |  |
| 0.6 | 4.1 | COC(=O)Nc1nc2ccc(C(=O)N(C)Cc3ccc4c(c3)B(O)OC4(C)C)cc2[nH]1 [8g] |  |
| 1.2 | > 100 | COC(=O)Nc1nc2cc(C(=O)NCc3ccc4c(c3)B(O)OC4(C)C)ccc2n1C [8e] | 24 |
| 1.8 | > 100 | COC(=O)Nc1nc2ccc(C(=O)NCc3ccc4c(c3)B(O)OC4(C)C)cc2n1C [8f] | 29 |

— PMC7026885, “Macrofilaricidal Benzimidazole–Benzoxaborole Hybrids as an Approach to the Treatment of River Blindness: Part 1. Amide Linked Analogs” (ACS Infectious Diseases, 2019)
